Measured values reported in patent EP0649843B1, “THIAZOLINE DERIVATIVE” (TAISHO PHARMACEUTICAL CO. LTD, priority 1992, dated 1994).
Where a name gives a salt, the structure may show the parent alone.

Experiments:
[1] = target: T1, fibrinogen receptor (GpIIb/IIIa) (Homo sapiens, UniProt P05106+P08514); test: Human blood platelet fibrinogen binding test; settings: inhibition of binding of 125I labelled human fibrinogen to human blood platelet suspension; ADP final concentration 10 µM
T1 construct: gel filtration using Sepharose 2B column to give a blood platelet suspension; endogenous in cells; host or cells: human blood platelets (gel-filtered, from platelet rich plasma of a healthy donor)
T1 sequence (P08514 32-887 limits assumed): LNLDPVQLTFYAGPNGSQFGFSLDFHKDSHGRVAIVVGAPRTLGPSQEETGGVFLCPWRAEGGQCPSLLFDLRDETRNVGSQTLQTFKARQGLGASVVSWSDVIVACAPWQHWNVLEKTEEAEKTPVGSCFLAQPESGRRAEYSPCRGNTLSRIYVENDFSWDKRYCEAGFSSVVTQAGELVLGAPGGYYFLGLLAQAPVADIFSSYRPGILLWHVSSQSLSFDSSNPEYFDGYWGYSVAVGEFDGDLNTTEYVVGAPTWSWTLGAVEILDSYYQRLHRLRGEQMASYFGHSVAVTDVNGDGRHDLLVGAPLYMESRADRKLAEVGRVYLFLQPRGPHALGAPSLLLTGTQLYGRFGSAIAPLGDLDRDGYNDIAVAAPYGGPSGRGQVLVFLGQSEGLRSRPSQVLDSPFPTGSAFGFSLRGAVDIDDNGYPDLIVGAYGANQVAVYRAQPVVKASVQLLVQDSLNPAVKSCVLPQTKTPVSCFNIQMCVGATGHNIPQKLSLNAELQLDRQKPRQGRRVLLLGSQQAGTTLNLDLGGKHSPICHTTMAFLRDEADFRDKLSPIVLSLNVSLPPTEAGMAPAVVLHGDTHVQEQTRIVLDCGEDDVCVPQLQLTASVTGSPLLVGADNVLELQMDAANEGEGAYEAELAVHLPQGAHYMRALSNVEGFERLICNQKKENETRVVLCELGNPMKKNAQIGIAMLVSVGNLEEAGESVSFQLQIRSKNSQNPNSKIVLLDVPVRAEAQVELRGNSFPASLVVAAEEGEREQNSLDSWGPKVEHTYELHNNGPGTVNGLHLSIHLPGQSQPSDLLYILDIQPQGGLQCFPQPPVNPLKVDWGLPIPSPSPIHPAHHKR
T1 sequence (P08514 891-1039 partner limits assumed): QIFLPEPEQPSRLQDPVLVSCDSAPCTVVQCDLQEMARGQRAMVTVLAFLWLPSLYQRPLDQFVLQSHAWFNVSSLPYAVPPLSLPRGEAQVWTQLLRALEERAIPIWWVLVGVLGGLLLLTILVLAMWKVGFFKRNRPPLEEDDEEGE
T1 sequence (P05106 27-788): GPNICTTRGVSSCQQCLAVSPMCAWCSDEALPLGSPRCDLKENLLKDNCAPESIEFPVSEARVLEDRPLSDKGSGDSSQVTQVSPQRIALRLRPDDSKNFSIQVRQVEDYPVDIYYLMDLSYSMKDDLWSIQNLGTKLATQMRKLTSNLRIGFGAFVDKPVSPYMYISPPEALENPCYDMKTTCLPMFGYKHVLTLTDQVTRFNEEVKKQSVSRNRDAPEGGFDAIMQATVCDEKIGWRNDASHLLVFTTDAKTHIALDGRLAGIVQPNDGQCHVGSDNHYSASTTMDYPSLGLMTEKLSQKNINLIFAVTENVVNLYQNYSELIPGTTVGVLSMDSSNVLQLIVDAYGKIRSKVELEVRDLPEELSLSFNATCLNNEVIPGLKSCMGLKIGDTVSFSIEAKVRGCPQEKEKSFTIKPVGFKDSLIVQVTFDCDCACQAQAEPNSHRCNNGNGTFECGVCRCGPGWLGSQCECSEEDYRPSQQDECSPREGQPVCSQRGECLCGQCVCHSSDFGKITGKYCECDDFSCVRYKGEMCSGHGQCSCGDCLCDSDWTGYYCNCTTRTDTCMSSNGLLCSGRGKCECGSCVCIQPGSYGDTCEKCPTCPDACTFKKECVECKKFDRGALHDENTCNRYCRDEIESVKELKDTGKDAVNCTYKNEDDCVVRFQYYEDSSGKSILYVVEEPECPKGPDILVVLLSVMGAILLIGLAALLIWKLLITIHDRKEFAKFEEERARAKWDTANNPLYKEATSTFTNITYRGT
Experimental: The precipitate was suspended in a Tyrode's solution (20% fetal bovine serum, 2 mM Mg^2+), followed by gel filtration using Sepharose 2B column to give a blood platelet suspension (1 x 10^9/ml) apart from fibrinogen. […] The binding inhibition rate of the test drug was then calculated.

[2] = tested on: Blood platelet aggregation; test: Inhibition test of human in vitro platelet aggregation (ADP-induced); assay type: cell-based
Experimental: The blood platelet counts of PRP were adjusted to (50 to 60) x 10^4/µl by diluting with PPP.
Blood platelet aggregation was determined according to the method of Born G.V.R., [Nature, vol. […] That is, a solution of the compound of Formula (I) as a test drug in dimethyl sulfoxide was adjust to the desired concentration with a physiological saline solution. 25 µl of the solution was added to 250 µl of PRP and incubated at 37°C for 3 minutes, and 25 µl of ADP (final concentration : 7 µM) was added thereto.

IC50 [1]	IC50 ([2]; Homo sapiens, Platelet, 0.05 h)	Compound	IC50 ([2]; concentration causing 50% inhibition of the maximum aggregation, human PRP, ADP final concentration 7 µM, incubated at 37°C for 3 minutes)
5.1 nM	17 nM	Cc1c(C(=O)NCCC(=O)O)sc(=NC(=O)c2ccc(C(=N)N)cc2)n1C [Compound 5, N-(2-carboxyethyl)-2-(4-amidinobenzoylimino)-3,4-dimetylthiazoline-5-carboxamide hydrobromide]	–
–	20 nM	Cc1c(C(=O)NCCC(=O)O)sc(=NC(=O)c2ccc(C(=N)Nc3ccccc3)cc2)n1C [Compound 31, N-(2-carboxyethyl)-2-[4-(N-phenylamidino)benzoylimino]-3,4-dimethyl-3H-thiazoline-5-carboxamide hydrobromide]	–
1.3 nM	–	Cc1c(C(=O)NCCC(=O)O)sc(=NC(=O)c2ccc(C(=N)N(C)C)cc2)n1C [Compound 37, N-(2-carboxyethyl)-2-[4-(N,N-dimethylamidino)benzoylimino]-3,4-dimethyl-3H-thiazoline-5-carboxamide hydrobromide]	–
–	15 nM	Cc1c(C(=O)NCCC(=O)O)sc(=NC(=O)c2ccc(C(=N)N)cc2)n1C(C)C [Compound 27]	–
2.7 nM	–	CNC(=N)c1ccc(C(=O)N=c2sc(C(=O)NCCC(=O)O)c(C)n2C)cc1 [Compound 7, N-(2-carboxyethyl)-2-[4-(N-methylamidino)benzoylimino]-3,4-dimethyl-3H-thiazoline-5-carboxamide hydrobromide]	–

Further lines, the compound ahead of its results:

Compound	IC50 [1]	IC50 ([2]; Homo sapiens, Platelet, 0.05 h)	IC50 ([2]; concentration causing 50% inhibition of the maximum aggregation, human PRP, ADP final concentration 7 µM, incubated at 37°C for 3 minutes)
COC(=O)CCNC(=O)c1sc(=NC(=O)c2ccc(C#N)cc2)n(C(C)C)c1C [Compound 23]	6.3 nM	–	–
Cc1c(C(=O)NCCC(=O)O)sc(=NC(=O)c2ccc(C(=N)N(C)Cc3ccccc3)cc2)n1C [Compound 35, N-(2-carboxyethyl)-2-[4-(N-methyl-N-benzylamidino)benzoylimino]-3,4-dimethyl-3H-thiazoline-5-carboxamide hydrobromide]	1 nM	–	–
3-[3-(4-amidinobenzoyl)benzamide]propionic acid [Control, reference compound]	84.4 nM	–	105 nM
Cc1c(C(=O)NCCC(=O)O)sc(=NC(=O)c2ccc(C(=N)NCc3ccccc3)cc2)n1C [Compound 29]	7.9 nM	14 nM	–
CCCCn1c(C)c(C(=O)NCCC(=O)O)sc1=NC(=O)c1ccc(C(=N)N)cc1 [Compound 22]	–	18 nM	–
Cc1c(C(=O)NCCC(=O)O)sc(=NC(=O)c2ccc(C(=N)N)cc2)n1Cc1ccccc1 [Compound 17]	–	19 nM	–
